Values of other authors as cited in US20240047033A1, “MULTI-OMICS METHODS FOR PRECISION MEDICINE” (UNIVERSITY OF PITTSBURGH-OF THE COMMONWEALTH SYSTEM OF …, priority 2020, published 2024).

System: non-small cell lung cancer (NSCLC) tumors
Settings: pretreated chemorefractory NSCLC patients, Erlotinib monotherapy, 28 patients

Structure (SMILES): C#Cc1cccc(Nc2ncnc3cc(OCCOC)c(OCCOC)cc23)c1 [Erlotinib]
- time within which all treated patients progressed: six
